# From EPA's ToxValDB 9.5 (doi:10.2903/j.efsa.2017.4695)
# Columns and labels:
# Apis mellifera = conditions: acute, mortality
# Bibionidae = conditions: chronic/long-term; duration: 28 days; development
# Colinus virginianus = conditions: acute; oral; mortality
# Daphnia magna = conditions: chronic/long-term; duration: 21 days; reproduction
# Folsomia candida = conditions: chronic/long-term; duration: 4 weeks; mortality
# Lepomis macrochirus = conditions: acute; duration: 96 hours; mortality
# Oryctolagus sp. = conditions: developmental; development
# Pimephales promelas = conditions: chronic/long-term; reproduction
# Rattus norvegicus = conditions: acute; oral; mortality
# Tagia sp. = conditions: chronic/long-term; duration: 8 weeks; reproduction
# Aphidius rhopalosiphi = assay: LR50; higher = less toxic; conditions: acute; mortality
# Typhlodromus pyri = assay: LR50; higher = less toxic; conditions: acute; mortality
smiles,measurement,setting,value
COc1cc(OC)nc(NC(=O)NS(=O)(=O)c2c(Cl)nc3ccccn23)n1 [Imazosulfuron],LD50,"Anas platyrhynchos; acute, oral, unspecified, mortality",> 2250 mg/kg-day
same,NOAEL,"Anas platyrhynchos; reproductive, other",15.9 mg/kg-day
same,LD50,Apis mellifera; dermal,> 100 µg/piece
same,LD50,"Apis mellifera; oral, unspecified",> 41.6 µg/piece
same,NOEC,Bibionidae,490 µg/L
same,LD50,Colinus virginianus,> 2250 mg/kg-day
same,NOEC,Daphnia magna,0.84 mg/L
same,NOEC,Folsomia candida,1000 mg/kg
same,LC50,Lepomis macrochirus,> 74 µg/mL
same,NOAEL,Oryctolagus sp.,50 mg/kg-day
same,NOEC,Pimephales promelas,2.9 mg/L
same,LD50,Rattus norvegicus,> 1000 mg/kg-day
same,NOEC,Tagia sp.,500 mg/kg
same,LR50,Aphidius rhopalosiphi,> 50 g/ha
same,LR50,Typhlodromus pyri,> 50 g/ha
